Laboratory results taken from patent US9034886B2, “4-aminoquinazoline derivatives and uses thereof” (Shanghai Institute of Pharmaceutical Industry, priority 2011, dated 2015).

How the values were obtained:
[1] = tested on: PANC-1 human pancreatic cancer cells; experiment: In vitro anti-proliferative effect, CCK-8 method, PANC-1; assay type: cell-based; details: Homo sapiens, PANC-1
How it was run: (§1)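 Cells treated with compounds at 100 μM and 10 μM. Percent inhibition of proliferation measured by CCK-8.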

[2] = tested on: MDA-MB-435s human breast cancer cells; experiment: In vitro anti-proliferative effect, CCK-8 method, MDA-MB-435s; assay type: cell-based; details: Homo sapiens, MDA-MB-435S
How it was run: as §1

[3] = tested on: PC-3 human prostate cancer; experiment: In vitro anti-proliferative effect, CCK-8 method, PC-3; assay type: cell-based; details: Homo sapiens, PC-3 cell strain, CCK-8 method; for inhibition at 10 µM: compound at 10 μM; for inhibition at 100 µM: compound at 100 μM
How it was run: as §1

[4] = tested on: Colo320 human colorectal cancer cell lines; experiment: In vitro anti-proliferative effect, CCK-8 method, Colo320; assay type: cell-based; details: Homo sapiens, COLO 320, Colo320 cell strain, CCK-8 method; for inhibition at 10 µM: compound at 10 μM; for inhibition at 100 µM: compound at 100 μM
How it was run: as §1

[5] = tested on: Hep3B2.1-7 human liver cancer cells; experiment: In vitro anti-proliferative effect, CCK-8 method, Hep3B; assay type: cell-based; details: Homo sapiens, Hep3B cell strain, CCK-8 method; for inhibition at 10 µM: compound at 10 μM; for inhibition at 100 µM: compound at 100 μM
How it was run: as §1

[6] = tested on: Jurkat E6-1 human T-cell lymphoma; experiment: In vitro anti-proliferative effect, CCK-8 method, Jurkat E6-1; assay type: cell-based; details: Homo sapiens, Jurkat E6.1
How it was run: as §1

[7] = tested on: Hut78 T lymphocytic leukemia cells; experiment: In vitro anti-proliferative effect, CCK-8 method, Hut78; assay type: cell-based; details: Homo sapiens, HuT78, read-out: Hut-78 (inhibition %)
How it was run: (§2)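 K562 and Hut78 cells exposed to compounds at 100 μM and 10 μM. Percent inhibition of proliferation determined by CCK-8 read-out.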

[8] = biological target: HDAC1 (Homo sapiens (Human), UniProt Q13547); experiment: In vitro inhibition of subtype HDAC1 (HDAC1 Inhibitor Drug Screening Kit, Biovision); assay type: biochemical; details: for inhibition at 1 µM / inhibition at 10 µM: read-out: % Inhibition towards HDAC1; for inhibitory activity against HDAC1 compared with MS-275: both concentrations 10 μM and 1 μM
Chain of HDAC1 (Q13547 whole entry): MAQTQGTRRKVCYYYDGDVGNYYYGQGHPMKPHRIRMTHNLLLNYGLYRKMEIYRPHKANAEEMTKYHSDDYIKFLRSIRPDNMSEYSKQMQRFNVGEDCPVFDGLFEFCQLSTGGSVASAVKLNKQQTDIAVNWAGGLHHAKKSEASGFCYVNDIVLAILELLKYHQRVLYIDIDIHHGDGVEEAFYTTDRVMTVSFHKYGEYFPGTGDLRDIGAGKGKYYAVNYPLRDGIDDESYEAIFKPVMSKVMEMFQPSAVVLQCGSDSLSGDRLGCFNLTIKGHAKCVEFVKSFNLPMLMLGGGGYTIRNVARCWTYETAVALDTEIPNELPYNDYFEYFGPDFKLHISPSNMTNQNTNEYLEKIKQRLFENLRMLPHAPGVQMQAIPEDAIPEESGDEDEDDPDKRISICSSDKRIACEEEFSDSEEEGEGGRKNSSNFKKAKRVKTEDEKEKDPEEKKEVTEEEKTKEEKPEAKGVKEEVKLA
Method: The in vitro inhibitory activities of the compounds towards the subtype HDAC1 were tested according to the instructions in the HDAC1 Inhibitor Drug Screening Kit (Biovision).
(1) The compounds to be tested were each individually prepared as 10 μM and 1 μM solutions and their inhibitory activities at these concentrations were tested.
Each dilution sample was placed in two wells and the enzyme inhibition IC50 of the compound was tested.

[9] = tested on: HDACs; experiment: In vitro inhibition of HDACs (HDAC Inhibitor Drug Screening Kit, Biovision K340-100); assay type: biochemical
Method: The in vitro inhibitory activities of the compounds towards HDACs were tested according to the instructions in the HDAC Inhibitor Drug Screening Kit (Biovision/Catalog #K340-100).
(1) The compounds to be tested were each individually prepared as 2 mM, 200 μM and 40 μM solutions and their inhibitory activities at these concentrations were tested.

[10] = tested on: K562 human chronic myelogenous leukemia cells; experiment: In vitro anti-proliferative effect, CCK-8 method, K562; assay type: cell-based; details: Homo sapiens, K562
How it was run: as §2

[11] = Maximum tolerance dose through intragastrical administration; assay type: in vivo; details: mice, administrated intragastrically
Method: Forty ICR mice, half female and half male, weighing […] were divided into four groups, 10 mice in each group. After the mice were fasted for 6 h, the compound to be tested was administrated intragastrically to each group at a volume of 0.3 ml/10 g by using a sterile plastic syringe. General physical signs and the deaths of the animals were record at 1, 2 and 4 h after the administration. The animals were then observed continuously for 14 days and their weights, physical signs and deaths were observed and recorded every day. Dead animals were dissected to see if there was any visible pathological change in the animal's viscera and pathological examination was performed on suspicious tissues and organs. A part of the experimental results is as follows.

[12] = tested on: A549 human lung cancer cells; experiment: In vitro anti-proliferative effect, CCK-8 method, A549; assay type: cell-based; details: Homo sapiens, A549
How it was run: as §1

Row | SMILES | inhibition at 10 µM [1] [%] | inhibition at 100 µM [1] [%] | inhibition at 10 µM [2] [%] | inhibition at 100 µM [2] [%] | inhibition at 10 µM [3] [%] | inhibition at 100 µM [3] [%] | inhibition at 10 µM [4] [%] | inhibition at 100 µM [4] [%] | inhibition at 10 µM [5] [%] | inhibition at 100 µM [5] [%] | inhibition at 10 µM [6] [%] | inhibition at 100 µM [6] [%] | inhibition at 10 µM [7] [%] | inhibition at 100 µM [7] [%] | inhibition at 1 µM [8] [%] | inhibition at 10 µM [8] [%] | Inhibition percentage (%) towards HDACs ([9]; 40 μM) [%] | Inhibition percentage (%) towards HDACs ([9]; 200 μM) [%] | Inhibition percentage (%) towards HDACs ([9]; 2 mM) [%] | inhibition at 10 µM [10] [%] | further results
1 | CS(=O)(=O)CCNCc1ccc(-c2ccc3ncnc(Nc4ccc(C(=O)Nc5cc(F)ccc5N)cc4)c3c2)o1 [Compound V-20, N-(2-amino-5-fluorophenyl)-4-[6-(5-((2-(methylsulfonyl)ethylamino)methyl)furyl)quinazoline-4-amino]benzamide] | -1.7 | 52 | 17 | 57.8 | 48.1 | 75.5 | 6.5 | 58.8 | 23.5 | 60 | 84.8 | 89.4 | 44.4 | 85.7 | 53.5 | 77.4 | 28.2 | 56.9 | 67.5 | 64.3 | inhibitory activity against HDAC1 compared with MS-275 [8]: superior to that of MS-275; IC50 [9]: 1.22 µM; inhibition at 100 µM [10]: 92.9%; maximum tolerance dose [11]: over 5000 mg/kg; inhibition at 10 µM [12]: 0%; inhibition at 100 µM [12]: 41.3%
2 | COC(=O)Cc1ccc2ncnc(Nc3ccc(C(=O)Nc4ccccc4N)cc3)c2c1 [Compound V-22, N-(2-aminophenyl)-4-(6-methoxycarbonylmethylquinazoline-4-amino)benzamide] | 12.3 | 39.4 | 18 | 81.4 | 44.6 | 69 | 5.4 | 40.8 | 38.3 | 69.2 | 83.1 | 88.2 | 42.3 | 91.8 | 23.1 | 63 | 19.9 | 47.5 | 84.2 | 60.9 | inhibition at 100 µM [10]: 83.4%; maximum tolerance dose [11]: over 2000 mg/kg; inhibition at 10 µM [12]: 21.8%; inhibition at 100 µM [12]: 69.9%
3 | COc1cc2ncnc(Nc3ccc(C(=O)Nc4cc(-c5ccccc5)ccc4N)cc3)c2cc1OC [Compound V-24, N-[2-amino-5-(phenyl)phenyl]-4-(6,7-dimethoxyquinazoline-4-amino)benzamide] | 17.5 | 22.1 | -10.8 | 24.5 | 13.1 | 63.7 | -1.7 | 16.5 | 14.3 | 69.5 | 30.7 | 91.4 | 15.5 | 72.9 | 51 | 73.3 | 24.2 | 55.2 | 76.1 | -1.7 | inhibitory activity against HDAC1 compared with MS-275 [8]: superior to that of MS-275; inhibition at 100 µM [10]: 75.3%; maximum tolerance dose [11]: over 2000 mg/kg; inhibition at 10 µM [12]: 7.3%; inhibition at 100 µM [12]: 20.8%
4 | COc1cc2ncnc(Nc3ccc(C(=O)Nc4cc(-c5ccco5)ccc4N)cc3)c2cc1OC [Compound V-25, N-[2-amino-5-(2-furyl)phenyl]-4-(6,7-dimethoxyquinazoline-4-amino)benzamide] | 20.8 | 39.5 | 30.8 | 61.2 | -9.4 | 22.1 | 7.9 | 14.1 | 11.3 | 40.6 | 12.5 | 83.3 | 18.1 | 60 | 24.2 | 53.8 | 20.5 | 55.2 | 72.8 | 34.1 | inhibition at 100 µM [10]: 64.8%; maximum tolerance dose [11]: over 5000 mg/kg; inhibition at 10 µM [12]: 2.4%; inhibition at 100 µM [12]: 12%
5 | Nc1ccc(F)cc1NC(=O)c1ccc(CNc2ncnc3ccccc23)cc1 [Compound V-29, N-(2-amino-5-fluorophenyl)-4-[(quinazoline-4-amino)methyl]benzamide] | 0.9 | 18.4 | 10.1 | 78.5 | 88 | 94.5 | -7.2 | 35.5 | 22.5 | 60.5 | 51.5 | 96.2 | 79.4 | 94 | 41.4 | 63.2 | 8.6 | 31.0 | 37.8 | 57.4 | IC50 [8]: 0.517 µM; inhibition at 100 µM [10]: 83.8%; maximum tolerance dose [11]: over 5000 mg/kg; inhibition at 10 µM [12]: 6.3%; inhibition at 100 µM [12]: 69.8%
